Assay results as given in US3971814A, “Benzo(b)thiophene derivatives” (priority 1972, dated 1976).
Where two headings read alike, the source gives them in different places.

Key:
[1] = test system: Yeast Edema of the Rat Paw; assay: Yeast edema and determination of pain threshold in the rat paw; assay type: in vivo; settings: 3 h; for Volume (increase in paw volume, blank control = 100%) / Pain Threshold (change vs initial value): i.g.
Method: test animals are male rats (SIV 50) weighing 100 to 180 g. […] 10 animals belonged to each dosage group.
The volume of the paw is determined according to the method described by Enders and Heidbrink, the pain threshold according to that described by Randall and Selitto (Arch. Int. Pharmacodyn CXI: 409, 1957).
Following initial measurements, […] of a 5% suspension of dried yeast is injected subplantarly into the right paw and the test substances are administered immediately. The blank control group is given Tragacanth mucilage only. After 3 hours the pain threshold and the volume of the paw are determined again.
The mean value of the increase in paw volume of the animals of the blank control after 3 hours is rated 100%, and the mean value of the increase in paw volume of the animals of the substance groups expressed as a percentage thereof. Pain threshold after 3 hours reflects the increase or decrease in percent, compared to the initial value.
In order to be able to calculate the ED50 according to the method by Lichtfield and Wilcoxon (J.P.E.T. 96:99, 1949), those animals in a dose group are considered protected when the paw swelling was at least 40% less than that of the blank control.

[2] = in vivo; settings: mouse
[3] = test system: Kaolin Edema of the Rat Paw; assay: Kaolin edema of the rat paw; assay type: in vivo; settings: for 60 min. (paw edema) / 120 min. (paw edema) / 180 min. (paw edema): ig., section K
Method: test animals used are the same as stated under Example B and up to the beginning of the test, the procedure corresponded to that described under this example.
After an initial measurement, a sterile 25% kaolin suspension was injected (0.05 ml/paw) subplantarly. The test substances are administered immediately, and after 60, 120, and 180 minutes the paw volume is again determined.
Evaluation of the tests was performed as stated under Example C, and the results so obtained presented below: […]

[4] = test system: Carrageenin Edema of the Rat Paw; assay: Carrageenin edema of the rat paw; assay type: in vivo
Method: test animals used are the same as stated under Example B and up to the initial measurement, the procedure corresponded to that described under this example.
After an initial measurement, the test substances are administered and after 60 minutes a 1% Carrageenin suspension is injected subplantarly (0.1 ml/paw). After 60 and 180 minutes the paw volume is again determined. Here, too, the blank control group was treated with the carrier alone.
The increase in the volume of the paw after 60 minutes is considered as the first phase of the biphase edema and that after 180 minutes, as compared to the 60-minute-value, as the second phase. Moreover, the total increase of the paw edema within 180 minutes, as compared to the initial value, is also determined.
Determination of the influence exerted by the substances upon the development of the paw edema and calculation of the ED50 are done as under Example B.

[5] = test system: Granulation Tissue; assay: Cotton-pellet test (granulation tissue); assay type: in vivo; settings: rat
Method: test animals are male rats (SIV 50) weighing 110 to 200 g. All test animals are kept fasting for 16 to 18 hours prior to the implantation of the pellets; after that food and water were available ad libitum. Each dose level of the chemical tested was administered to 12 animals. The substances were suspended in 1% Tragacanth mucilage and administered intragastrically by means of a stomach tube. The substances to be investigated and the control suspensions are administered once on the operating day following operation, and twice a day on the following 6 days (at intervals of 6 to 8 hours). The type of application and volume of liquid corresponded to that under B.
Under light ether anesthesia 4 sterile cotton pellets were implanted under the skin on the back of the animal. The weight of one pellet was 50 mg ± 0.5 mg. After 7 days treatment, the animals were sacrificed, the pellets removed with the granulation tissue, weighed and then dried in the incubator at +80°C to constant weight. The average dry weight of the granulation tissue of the control group was rated 100%, and deviations of the mean weights of the group treated with the test substance determined as a percentage thereof.
The weight of the animals is measured daily throughout the tests, and the percental increase determined. At the end of some tests, moreover, the suprarenal glands are removed and their weight determined.

[6] = test system: Granuloma Pouch; assay: Granuloma pouch test; assay type: in vivo; settings: rat
Method: Under light ether anesthesia 25 ml of air are injected under the shaved skin of the back. 0.5 ml of croton oil/animal (0.05%) are injected into the pouch formed by the air, and evenly distributed over the back by turning the animal.
On the third day croton oil (3%, 0.5 ml/animal) is again injected into this pouch.
The average dry weights of the granuloma pouches and the quantities of secretion of the groups subjected to treatment are then compared with those of the control group and the percental deviations calculated.
At the end of some tests the suprarenal glands are removed and the weight of these organs is also determined.
The weight of the animals is measured daily and the changes determined as a percentage.

[7] = test system: male mice (NMRI); assay: Hot-plate test (analgesia); assay type: in vivo; settings: mouse, i.g.
Method: male mice (NMRI) weighing 18 to 28 g are used as test animals. The animals are placed on a copper plate constantly kept at 55°C, and the time is measured until they lick their forepaws.
Following 3 initial measurements, the test substances are administered intragastrically. Afterwards the measurements are repeated over a period of 2 hours at intervals of 30 minutes. Each dose is administered to 10 animals selected from groups of 15 animals following the initial measurements.
The test substances are administered as a suspension in 1% Tragacanth mucilage, the volume of liquid amounting to 2 ml/100 g of body weight.
For the purpose of statistical evaluation according to Litchfield and Wilcoxon, those animals in which the reaction time has been extended by at least 100% are considered protected.

[8] = Summary: calculated ED50 and therapeutic ratio; assay type: in vivo, rat; settings: for ED50: Rattus norvegicus
Method: From the ED50 and LD50 (A) the following therapeutic ratios for this test are calculated: […]

[9] = test system: Arthritis Induced by the Freund Adjuvant; assay: Adjuvant arthritis; assay type: in vivo; settings: rat, i.g.
Method: test animals used are the same as described under Example E; food and water is given ad libitum.
On the first day of the test a 0.8% suspension of Mycobacterium butyrium in paraffin (0.05 or 0.1 ml/paw) is injected subplantarly into the left hind paw of the animals. […] From the 19th to the 22nd day the animals showing a reaction are treated intragastrically with the test substances. The right paw having been marked above the ankle-joint, the volume is determined daily from the 19th to the 22nd or 23rd day, according to the process described under Example B.
The volume of liquid, as well as of the carrier administered, corresponded to that described in the above tests.

[10] = po, ig., section K, read-out: volume (paw, control = 100%)
[11] = ig., 2×50.0 mg/kg daily, section K
[12] = ig., 2×90.0 mg/kg daily, section K

## COC(=N)c1sc2ccccc2c1O [Example 1, Methyl 3-Hydroxy-Benzo[b]Thiopene-2-Carboximidate]
[1]; po, ig., 75 mg/kg, section K (control -23)
  change in vivo at 75 mg/kg: -10%
[1]; po, ig., 75 mg/kg, section K (control pain -23), read-out: volume (paw, control = 100%)
  response vs control in vivo at 75 mg/kg: 32%
[2]; po
  LD50: > 1600 mg/kg

## COCCOC(=N)c1sc2ccccc2c1O [Example 10]
[1]; po, ig., section K
  change in vivo at 200 mg/kg: -49%
[1]; [10]
  response vs control in vivo at 200 mg/kg: 73%
[1]; po, ig., 250 mg/kg, section K (control -35)
  change in vivo at 250 mg/kg: -30%
[1]; po, ig., 250 mg/kg, section K, read-out: volume (paw, control = 100%)
  response vs control in vivo at 250 mg/kg: 33%
[3]; 200 mg/kg
  60 min. (paw edema): 67%
  120 min. (paw edema): 47%
  180 min. (paw edema): 46%
[2]; po
  LD50: ~1600 mg/kg

## CC(=O)Oc1ccccc1C(=O)O [Acetylsalicylic Acid, acetylsalicylic acid]
[1]; 150.0 mg/kg
  Volume (increase in paw volume, blank control = 100%): 134%
[1]; 300.0 mg/kg
  Pain Threshold (change vs initial value): -15%
  Volume (increase in paw volume, blank control = 100%): 81%
[4]; 100.0 mg/kg
  1st Phase (paw edema): 83%
  2nd Phase (paw edema): 114%
  3 Hrs. (total paw edema): 96%
[4]; 200.0 mg/kg
  1st Phase (paw edema): 95%
  2nd Phase (paw edema): 60%
  3 Hrs. (total paw edema): 76%
[3]; 300.0 mg/kg
  60 Minutes (paw edema): 156%
  120 Minutes (paw edema): 93%
  180 Minutes (paw edema): 82%
[3]; 300 mg/kg
  60 min. (paw edema): 156%
  120 min. (paw edema): 93%
  180 min. (paw edema): 82%
[5]; i.g., 2 × 200 mg/kg daily
  Granulation Tissue % (Dry Weight): 89%
  Increase in Body Weight: not influenced
[6]; i.g., 2 × 150 mg/kg daily
  Granuloma Pouch Dry Weight: 88%
  Increase in Body Weight: not influenced
  Secretion: 121%
[7]; up to 400 mg/kg
  Notes (analgesic activity): ineffective
[8]
  ED50: 192 mg/kg
[8]; from ED50 and LD50 (A)
  therapeutic ratio: 10.7

## N=C(NCCN1CCOCC1)c1sc2ccccc2c1O [Example 33]
[1]; sc., 225 mg/kg, section K (control -10)
  change in vivo at 225 mg/kg: 34%
[1]; sc., 225 mg/kg, section K, read-out: volume (paw, control = 100%)
  response vs control in vivo at 225 mg/kg: 46%
[2]; sc
  LD50: ~1000 mg/kg

## CCOCCCNC(=N)c1sc2ccccc2c1O [Example 41]
[1]; po, ig., 125 mg/kg, section K (control -9)
  change in vivo at 125 mg/kg: 22%
[1]; po, ig., 125 mg/kg, section K, read-out: volume (paw, control = 100%)
  response vs control in vivo at 125 mg/kg: 51%
[5]; ig., 2×150 mg/kg daily, section K
  granulation tissue % dry weight: 90%
[5]; ig., 2×150 mg/kg daily, section K, control 36
  increase in body weight %: 29%
[2]; po
  LD50: ~1600 mg/kg

## CN(C)CCNC(=N)c1sc2ccccc2c1O [Example 31]
[1]; [10]
  response vs control in vivo at 200 mg/kg: 75%
[2]; po
  LD50: > 1600 mg/kg
[2]; sc
  LD50: > 800 mg/kg

## CCOCCOC(=N)c1sc2ccccc2c1O [Example 11]
[1]; po, ig., section K
  change in vivo at 200 mg/kg: 32%
[1]; [10]
  response vs control in vivo at 200 mg/kg: 41%
[3]; 50 mg/kg
  60 min. (paw edema): 40%
  120 min. (paw edema): 36%
  180 min. (paw edema): 56%
[3]; 100 mg/kg
  60 min. (paw edema): 22%
  120 min. (paw edema): 27%
  180 min. (paw edema): 46%
[2]; po
  LD50: > 1600 mg/kg

## N=C(NCCN1CCCC1)c1sc2ccccc2c1O [Example 34]
[1]; sc., 125 mg/kg, section K, read-out: volume (paw, control = 100%)
  response vs control in vivo at 125 mg/kg: 54%
[6]; [11]
  granuloma pouch dry weight %: 79%
  secretion %: 75%
[6]; ig., 2×50.0 mg/kg daily, section K, control 55
  increase in body weight %: 51%
[2]; sc
  LD50: ~600 mg/kg

## CCCC1C(=O)N2C(N(C)C)=Nc3ccc(C)cc3N2C1=O (stereo not drawn) [Azapropazone, 3-Dimethylamino-7-methyl-1,2-(n-propylmalonyl)-1,2-dihydro-1,2-benzotriazine-dihydrate]
[1]; 250.0 mg/kg
  Volume (increase in paw volume, blank control = 100%): 98%
[1]; 400.0 mg/kg
  Pain Threshold (change vs initial value): -52%
  Volume (increase in paw volume, blank control = 100%): 100%
[4]; 100.0 mg/kg
  1st Phase (paw edema): 72%
  2nd Phase (paw edema): 50%
  3 Hrs. (total paw edema): 63%
[4]; 400.0 mg/kg
  1st Phase (paw edema): 79%
  2nd Phase (paw edema): 21%
  3 Hrs. (total paw edema): 55%
[3]; 250.0 mg/kg
  60 Minutes (paw edema): 100%
  120 Minutes (paw edema): 93%
  180 Minutes (paw edema): 67%
[5]; i.g., 2 × 150 mg/kg daily
  Granulation Tissue % (Dry Weight): 76%
  Increase in Body Weight: not influenced
[9]; 2 × 250.0 mg/kg
  Swelling: 91%
[7]
  Notes (analgesic activity): ineffective

## CCCCC1C(=O)N(c2ccccc2)N(c2ccccc2)C1=O [Phenylbutazone, 4-n-Butyl-1,2-diphenyl-3,5-dioxo-pyrazolidine]
[1]; 150.0 mg/kg
  Volume (increase in paw volume, blank control = 100%): 74%
[1]; 300.0 mg/kg
  Volume (increase in paw volume, blank control = 100%): 67%
[4]; 60.0 mg/kg
  1st Phase (paw edema): 114%
  2nd Phase (paw edema): 52%
  3 Hrs. (total paw edema): 77%
[4]; 150.0 mg/kg
  1st Phase (paw edema): 81%
  2nd Phase (paw edema): 15%
  3 Hrs. (total paw edema): 38%
[3]; 90.0 mg/kg
  60 Minutes (paw edema): 107%
  120 Minutes (paw edema): 100%
  180 Minutes (paw edema): 81%
[5]; i.g., 2 × 90 mg/kg daily
  Granulation Tissue % (Dry Weight): 78%
[5]; in vivo, 90 mg/kg
  Increase in Body Weight: not influenced
[6]; i.g., 2 × 90 mg/kg daily
  Granuloma Pouch Dry Weight: 84%
  Secretion: 96%
[6]; [12]
  granuloma pouch dry weight %: 84%
  secretion %: 96%
[6]; in vivo, 90 mg/kg
  Increase in Body Weight: not influenced
  increase in body weight %: 57%
[9]; 2 × 60.0 mg/kg
  Swelling: 84%
[8]
  ED50: 20.1 mg/kg
